The values that follow come from patent publication US20020049223A1, “Quinoline and naphthyridine carboxylic acid antibacterials” (priority 1999, published 2002).

The melting point is the temperature of the solid-liquid transition.

Data set [1] relates to Streptococcus pneumoniae ATCC 6303. As to the kind of experiment: Assay B: in vitro antibacterial activity, broth microdilution MIC (NCCLS). The data set is classed as cell-based. Conditions: Table 2, Assay B, Mueller Hinton broth with 3% lysed horse blood, 20 to 24 hr; code F = Streptococcus pneumoniae ATCC 6303; unit assumed. Put shortly: (§1)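 MIC is the lowest concentration with no visible growth after serial two-fold dilution in cation-adjusted Mueller Hinton broth, approximately 5×10^5 CFU/mL inoculum, 16-20 h at 35 °C in air (NCCLS). Broth for H. influenzae gets 5 g/L yeast extract, 0.3 mmol/L hematin and 15 mg/L NAD, for S. pneumoniae 3% lysed horse blood; both incubated 20-24 h.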
(In general: Broth dilution looks for growth in wells or tubes with falling amounts of substance.)

Data set [2] relates to Staphylococcus aureus ATCC 6538P. Described as above. As to conditions: Table 2, Assay B, cation-adjusted Mueller Hinton broth, 35° C., 16 to 20 hr; code A = Staphylococcus aureus ATCC 6538P; unit assumed. The data set is classed as cell-based. Put shortly: as §1
The next data set has as its system Escherichia coli JUHL. The data set is described as above. The format is cell-based. Conditions: Table 2, Assay B, cation-adjusted Mueller Hinton broth, 35° C., 16 to 20 hr; code D = Escherichia coli JUHL; unit assumed. Put shortly:
as §1

Data set [3] relates to Enterococcus faecalis PIU 1967. Described as above. Conditions: Table 2, Assay B, cation-adjusted Mueller Hinton broth, 35° C., 16 to 20 hr; code B = Enterococcus faecalis PIU 1967; unit assumed. The format is cell-based. In short, it runs like this:
as §1

The subject of data set [4] is Haemophilus influenzae DILL AMP R. Described as above. The format is cell-based. Conditions: Table 2, Assay B, Mueller Hinton broth with yeast extract, hematin and NAD, 20 to 24 hr; code E = Haemophilus influenzae DILL AMP R; unit assumed. Put shortly: as §1

Each structure is given as a SMILES string. Where a name gives a salt, the structure may show the parent alone.

In the case of `Br.COc1c(-c2cc3c(s2)CCNC3C)ccc2c(=O)c(C(=O)O)cn(C3CC3)c12` (centres unmarked), the melting point is 202 to 205 °C (dec.).
`CC1NCCc2cc(-c3ccc4c(=O)c(C(=O)O)cn(C5CC5)c4n3)sc21.Cl` (centres unmarked) registered a melting point of 310 to 312 °C.
The same measure, in the same setting: as for `Br.CC1(C)CNCc2cc(-c3ccc4c(=O)c(C(=O)O)cn(C5CC5)c4n3)sc21`, the figure is > 300 °C (dec.); as for `Br.CC1(C)CNCc2cc(-c3ccc4c(=O)c(C(=O)O)cn(C5CC5)c4c3)sc21`, > 300 °C (dec.).
Turning to `Br.COc1c(-c2cc3c(s2)C(C)(C)CNC3)ccc2c(=O)c(C(=O)O)cn(C3CC3)c12`, the melting point is 212 to 217 °C (dec.).
With `Br.CC1(C)CNCc2cc(-c3nc4c(cc3F)c(=O)c(C(=O)O)cn4C3CC3)sc21`, the melting point is 258 to 262 °C (dec.).
In the case of `CC1CNCc2sc(-c3ccc4c(=O)c(C(=O)O)cn(C5CC5)c4c3)cc21.Cl` (centres unmarked), the melting point is 295 to 298 °C.
`COc1c(-c2cc3c(s2)CNCC3C)ccc2c(=O)c(C(=O)O)cn(C3CC3)c12.Cl` (centres unmarked) had a melting point of 254 to 259 °C.
On to `CC1CNCc2sc(-c3nc4c(cc3F)c(=O)c(C(=O)O)cn4C3CC3)cc21.Cl` (centres unmarked), for which the melting point lay in the range of 288 to 290 °C.
The compound `Cl.O=C(O)c1cn(C2CC2)c2nc(-c3cc4c(s3)CNCC4)ccc2c1=O` returned a melting point of 298 to 300 °C.
`COc1c(-c2cc3c(s2)CCC/C3=N\OCc2cccnc2)ccc2c(=O)c(C(=O)O)cn(C3CC3)c12` (as salt: hydrochloride) [Example 182, 1-cyclopropyl-8-methoxy-4-oxo-7-((4E)-4-((3-pyridinylmethoxy)imino)-4,5,6,7-tetrahydro-1-benzothien-2-yl)-1,4-dihydro-3-quinolinecarboxylic acid] returned a melting point of 181 to 183 °C.
Same read-out and setting: as for `COc1c(-c2cc3c(s2)CCC/C3=N\OCc2ccccn2)ccc2c(=O)c(C(=O)O)cn(C3CC3)c12` (as salt: hydrochloride) [Example 183, 1-cyclopropyl-8-methoxy-4-oxo-7-((4E)-4-((2-pyridinylmethoxy)imino)-4,5,6,7-tetrahydro-1-benzothien-2-yl)-1,4-dihydro-3-quinolinecarboxylic acid], the figure is 178 to 179 °C; as for `COc1c(-c2cc3c(s2)CCCC3O)ccc2c(=O)c(C(=O)O)cn(C3CC3)c12` (centres unmarked) [Example 38, 1-cyclopropyl-7-(4-hydroxy-4,5,6,7-tetrahydro-1-benzothien-2-yl)-8-methoxy-4-oxo-1,4-dihydro-3-quinolinecarboxylic acid], 237 to 239 °C.
`COc1c(-c2cc3c(s2)C(O)CCC3)ccc2c(=O)c(C(=O)O)cn(C3CC3)c12` (centres unmarked) [Example 41, 1-cyclopropyl-7-(7-hydroxy-4,5,6,7-tetrahydro-1-benzothien-2-yl)-8-methoxy-4-oxo-1,4-dihydro-3-quinolinecarboxylic acid]: the melting point lay in the range of 238 to 240 °C.
Take `COc1c(-c2cc3c(s2)CCC(CO)=C3)ccc2c(=O)c(C(=O)O)cn(C3CC3)c12` [Example 44, 1-cyclopropyl-7-(5-(hydroxymethyl)-6,7-dihydro-1-benzothien-2-yl)-8-methoxy-4-oxo-1,4-dihydro-3-quinolinecarboxylic acid]: the melting point is 205 to 206 °C.
As for `COc1c(-c2cc3c(s2)C(N)C(C)(C)CC3)c(F)cc2c(=O)c(C(=O)O)cn(C3CC3)c12.Cl` (centres unmarked) [Example 348, 7-(7-amino-6,6-dimethyl-4,5,6,7-tetrahydro-1-benzothien-2-yl)-1-cyclopropyl-6-fluoro-8-methoxy-4-oxo-1,4-dihydroquinoline-3-carboxylic acid hydrochloride], in data set [1], the Antibacterial Activity (MIC's), F turned out to be 0.03 µg/mL. In data set [2], this compound registered an Antibacterial Activity (MIC's), A of 0.015 µg/mL. For the same compound, the Antibacterial Activity (MIC's), D in the data set on Escherichia coli JUHL amounted to 0.25 µg/mL. In addition, in data set [3], the Antibacterial Activity (MIC's), B worked out at 0.125 µg/mL. In data set [4], this compound displayed an Antibacterial Activity (MIC's), E of 0.06 µg/mL.
On to `Nc1cc(-c2cc3c(s2)C(N)CCC3)c(F)c2c1c(=O)c(C(=O)O)cn2C1CC1.O=C(O)C(F)(F)F` (centres unmarked) [Example 349, 5-amino-7-(7-amino-4,5,6,7-tetrahydro-1-benzothien-2-yl)-1-cyclopropyl-8-fluoro-4-oxo-1,4-dihydroquinoline-3-carboxylic acid trifluoroacetic acid salt], for which the Antibacterial Activity (MIC's), F in data set [1] is 0.03 µg/mL. In data set [2], this compound returned an Antibacterial Activity (MIC's), A of 0.015 µg/mL. The compound further returned an Antibacterial Activity (MIC's), D in the data set on Escherichia coli JUHL of 0.03 µg/mL. Besides, the Antibacterial Activity (MIC's), B in data set [3] was determined as 0.125 µg/mL. In data set [4], this compound came in with an Antibacterial Activity (MIC's), E of at most 0.004 µg/mL.
In data set [1], `CNC1CCCc2sc(-c3ccc4c(=O)c(C(=O)O)cn(C5CC5)c4c3Cl)cc21.Cl` (centres unmarked) [Example 361, 8-chloro-1-cyclopropyl-7-(4-(methylamino)-4,5,6,7-tetrahydro-1-benzothien-2-yl)-4-oxo-1,4-dihydroquinoline-3-carboxylic acid hydrochloride] gave an Antibacterial Activity (MIC's), F of 0.03 µg/mL. Further, the Antibacterial Activity (MIC's), A in data set [2] stood at 0.015 µg/mL. In addition, in the data set on Escherichia coli JUHL, the Antibacterial Activity (MIC's), D came out at 0.06 µg/mL. In data set [3], this compound returned an Antibacterial Activity (MIC's), B of 0.06 µg/mL. This compound also yielded an Antibacterial Activity (MIC's), E in data set [4] of 0.015 µg/mL.
Compound `Cc1c(F)c(-c2cc3c(s2)CCCC3N)nc2c1c(=O)c(C(=O)O)cn2C1CC1.Cl` (centres unmarked) [Example 367, 7-(4-amino-4,5,6,7-tetrahydro-1-benzothien-2-yl)-1-cyclopropyl-6-fluoro-5-methyl-4-oxo-1,4-dihydro-1,8-naphthyridine-3-carboxylic acid hydrochloride] had an Antibacterial Activity (MIC's), F in data set [1] of 0.03 µg/mL. The compound also gave an Antibacterial Activity (MIC's), A in data set [2] of 0.015 µg/mL. The same compound registered an Antibacterial Activity (MIC's), D in the data set with Escherichia coli JUHL of 0.06 µg/mL. The compound also gave an Antibacterial Activity (MIC's), B in data set [3] of 0.125 µg/mL. The Antibacterial Activity (MIC's), E in data set [4] came to 0.03 µg/mL.
The compound `Cc1c(-c2cc3c(s2)C(N)CCC3)c(F)cc2c(=O)c(C(=O)O)cn(C3CC3)c12.Cl` (centres unmarked) [Example 368, 7-(7-amino-4,5,6,7-tetrahydro-1-benzothien-2-yl)-1-cyclopropyl-6-fluoro-8-methyl-4-oxo-1,4-dihydroquinoline-3-carboxylic acid hydrochloride] yielded an Antibacterial Activity (MIC's), F in data set [1] of 0.03 µg/mL. The compound further showed an Antibacterial Activity (MIC's), A in data set [2] of 0.015 µg/mL. Besides, in the data set on Escherichia coli JUHL, the Antibacterial Activity (MIC's), D was determined as 0.03 µg/mL. In data set [3], the Antibacterial Activity (MIC's), B came to 0.06 µg/mL. Also, the Antibacterial Activity (MIC's), E in data set [4] was at most 0.004 µg/mL.
Turning to `Cc1c(-c2cc3c(s2)C(O)CCC3)c(F)cc2c(=O)c(C(=O)O)cn(C3CC3)c12` (centres unmarked) [Example 369, 1-cyclopropyl-6-fluoro-7-(7-hydroxy-4,5,6,7-tetrahydro-1-benzothien-2-yl)-8-methyl-4-oxo-1,4-dihydroquinoline-3-carboxylic acid], the Antibacterial Activity (MIC's), F in data set [1] worked out at 0.03 µg/mL. In addition, the Antibacterial Activity (MIC's), A in data set [2] is at most 0.004 µg/mL. Besides, in the data set with Escherichia coli JUHL, the Antibacterial Activity (MIC's), D was found to be 0.06 µg/mL. This compound also yielded an Antibacterial Activity (MIC's), B in data set [3] of 0.03 µg/mL. In addition, the Antibacterial Activity (MIC's), E in data set [4] is at most 0.004 µg/mL.
In turn, `Cc1c(F)c(-c2cc3c(s2)C(N)CCC3)nc2c1c(=O)c(C(=O)O)cn2C1CC1.Cl` (centres unmarked) [Example 371, 7-(7-amino-4,5,6,7-tetrahydro-1-benzothien-2-yl)-1-cyclopropyl-6-fluoro-5-methyl-4-oxo-1,4-dihydro-1,8-naphthyridine-3-carboxylic acid hydrochloride] registered an Antibacterial Activity (MIC's), F in data set [1] of at most 0.004 µg/mL. In data set [2], this compound yielded an Antibacterial Activity (MIC's), A of at most 0.004 µg/mL. Further, the Antibacterial Activity (MIC's), D in the data set with Escherichia coli JUHL amounted to 0.06 µg/mL. Moreover, the Antibacterial Activity (MIC's), B in data set [3] amounted to 0.03 µg/mL. Moreover, the Antibacterial Activity (MIC's), E in data set [4] is 0.03 µg/mL.
